What was measured:
[1] = ELISA of antisera from mice immunized with sterol-containing liposomes; format: in vivo, BALB/c mice
Description: Accordingly, the following study is designed to assess the immunogenicity of different cholesterol or sterol analogs for use in a vaccine to prevent hyper-cholesterolemia. Briefly summarized, several sterols such as cholesterol, vitamin D2, cholesteryl oleate, cholesteryl myristate, 4-cholesten-3-one, and phosphatidylcholesterol (17β-Linkage) and (3β-Linkage), are incorporated into liposomes containing DPMC (1.8), DMPG (0.2), Chol (1.5) (mol/mol) and lipid A (25 to 200 μg/mol, preferably 25 μg/mol phospholipid) so that the phospholipid concentration remains constant. These liposomes are inoculated into BALB/c mice i.p. at day 0 and day 14. Mice are bled at day 14 and day 21 and antibodies specific for the antigen are assessed by ELISA using the antigen itself or crystalline cholesterol.
Multilamellar vesicles (“MLV”) are produced by aliquotting DMPC:DMPG:Cholesterol, 9:1:7.5 (mol/mol), and lipid A at 25 to 200 μg/Imol phospholipid into a round bottom flask. The mixture is rotary evaporated, desiccated, and hydrated in sterile, deionized water. Lipids are lyophilized and reconstituted in PBS to 10 mM with respect to phospholipids and assayed for total phosphorous.
Male BALB/c mice, 6-8 weeks old, are bled and then immunized with 0.1 ml liposomes containing 1 μmol total phospholipid and 25-200 μg monophosphoryl lipid A ip. At 14 day intervals, mice are bled and sera collected. […]

[2] = Complement-dependent immune lysis assay of antisera (glucose release from liposomes); set-up: species or system BALB/c mice
Description: This assay measures antibody-mediated, complement-dependent release of encapsulated glucose from liposomes. Released glucose is measured spectrophotometrically using a Tris-buffered assay reagent containing hexokinase, glucose-6-phosphate dehydrogenase, ATP, and NADP. This particular assay is a measurement of antibody functional activity, rather than particle (antibody) detection.
In addition, the antisera from mice vaccinated with phosphatidylcholesterol could detect cholesterol present in liposomes containing 43% cholesterol as well as 71% cholesterol, and were equally as active against liposomes containing phosphatidylcholesterol in a complement-dependent immune lysis assay. […] In the above antibody-dependent immune lysis assays, a release greater than 5% indicates a positive reaction.
The test liposomes contained or lacked 5 mol % phosphatidylcholesterol. The antisera were tested using a complement-dependent immune lysis assay, wherein a release greater than 5% indicated a positive reaction.

Row | SMILES | Antibody isotype induced ([1]; mice, detected by ELISA (FIG. 8)) | Reactivity of generated antibody ([1]; compound of Example VI in liposomes) | Glucose release of test liposomes ([2]; immune lysis assay, liposomes composed of 5% phosphatidylcholesterol (17β-Linkage)) | Liposome integrity in antibody-mediated immune lysis assay ([2]; more than 5 mol % phosphatidylcholesterol in liposomes containing 43 mol % cholesterol)
1 | CC(C)CCC[C@@H](C)[C@H]1CC[C@H]2[C@@H]3CC=C4C[C@@H](O)CC[C@]4(C)[C@H]3CC[C@]12C [cholesterol] | induce primarily IgM |  |  | 
2 | CCCCCCCCCCCCCC(=O)OCC(COP(=O)(O)OCCNC(=O)[C@H]1CC[C@H]2[C@@H]3CC=C4C[C@@H](O)CC[C@]4(C)[C@H]3CC[C@]12C)OC(=O)CCCCCCCCCCCCC (stereo partly drawn) [phosphatidylcholesterol (17β-Linkage), N-(5-Androsten-3β-OL-17β-amido) dimyristoylphosphatidylethanolamine] |  | IgG antibody that reacts with crystalline cholesterol, 43% cholesterol liposomes, and 71% liposomes | glucose release equivalent to liposomes containing 43% and 71% cholesterol | leaky liposomes

Source: patent publication US20020018808A1, “Vaccines against sterols” (priority 1990, published 2002)
